16 molecules from US12497370B2, “Isoxazoline derivatives” (Elanco Tiergesundheit AG, priority 2019, dated 2025) can be followed below.

Read-outs that look alike come from different tables or passages of the source.

The nature of data set [1]: PK determination following administration to beagle dogs. The note with it: dog. The format is in vivo. The protocol:
PK Determination Following Administration to Beagle Dogs
Behavior of single oral or intravenous dose of the desired compound was assessed in beagle dogs. The animals (n=6) received the compound by oral gavage (3 or 10 mg/kg) or intravenous dose (1 or 2 mg/kg). Blood samples were collected predose and at 0.25, 0.5, 1, 2, 4, 8, 24, 48, 72, 96, 168, 336, 504, 672, 1008, 1344, 1680, 2016, 2352, 2688, 2856 and 3024 h postdose. A portion of each whole blood sample was processed to plasma. Test article concentrations in plasma and whole blood were determined using LC-MS/MS.

For data set [2], the system named is fleas (Ctenocephalides felis). Kind of data set: In vitro evaluation of ingestion activity against fleas. As to conditions: flea ingestion test, compound in organic bovine blood (0.5% DMSO), adult fleas, percent mortality between 2 h and 48 h post infestation, read-out: EC50 (the source's name). Here is the method: In Vitro Evaluation of Ingestion Activity Against Fleas (Ctenocephalides felis)
For flea ingestion tests, serial dilutions of the compound stock were performed using DMSO to achieve the desired range for EC50 and EC90 determination. An aliquot of each compound dilution was added to organic bovine blood with a final DMSO concentration of 0.5% and placed in an artificial feeding container. Fipronil is included to serve as a positive control. Ten newly emerged unfed adult fleas, 0-7 days old Ctenocephalides felis, from a laboratory colony, were aspirated into each vial or cage. The cages for flea ingestion assays were held in a temperature-controlled artificial feeding apparatus to allow continual access to organic bovine blood containing the desired concentration of compound. Fresh aliquots of compound-spiked bovine blood were provided daily for the duration of the study. Fleas were evaluated for percent mortality at various time points between 2 h and 48 h post infestation. Fleas showing normal movement and/or jumping ability were considered viable and those showing no movement after tapping the vials were scored as dead.

Where [3] appears, read: in vivo, beagle dogs, single oral gavage (3 or 10 mg/kg) or intravenous dose (1 or 2 mg/kg), LC-MS/MS, read-out: Half-life (converted).
[4] abbreviates: in vivo, beagle dogs, single oral gavage (3 or 10 mg/kg) or intravenous dose (1 or 2 mg/kg), LC-MS/MS, read-out: Plasma clearance (converted).

As to `CS(=O)(=O)CC(=O)N1CC2(C1)OCc1cc(C3=NO[C@@](c4cc(Cl)c(F)c(Cl)c4)(C(F)(F)F)C3)ccc12` [sarolaner, reference compound], in data set [1] (setting [3]), the half-life is 12 days. In data set [1] (setting [4]), the clearance is 7.21 mL/h/kg. In data set [1] (beagle, in vivo), `Cc1cc(C2=NOC(c3cc(C(F)(F)F)cc(Cl)c3F)(C(F)(F)F)C2)sc1C(=O)NCC(=O)NCC(F)(F)F` (centres unmarked) [4.1 or 4.2] showed a clearance of 2.36 mL/h/kg and a half-life of 44 days.

With `O=C(CNC(=O)c1ccc(C2=NOC(c3cc(C(F)(F)F)cc(Cl)c3F)(C(F)(F)F)C2)c2ccccc12)NCC(F)(F)F` (centres unmarked) [2.1 or 2.2], in data set [2], the LC50 is less than 1 µg/mL. In data set [1] (beagle, in vivo), this molecule gave a clearance of 2.31 mL/h/kg and a half-life of 45 days. Consider `Cc1cc(C2=NOC(c3cc(Cl)cc(Cl)c3)(C(F)(F)F)C2)ccc1C(=O)NCC(=O)NCC(F)(F)F` (centres unmarked) [fluralaner, reference compound], for which, in data set [1] (setting [3]), the half-life was 12 to 15 days.

`CS(=O)(=O)CC(=O)N1CC2(C1)OCc1cc(C3=NO[C@](c4cc(C(F)(F)F)cc(C(F)F)c4F)(C(F)(F)F)C3)ccc12` [1.1 or 1.2]: the LC50 in data set [2] is less than 3 µg/mL. Also, in data set [1] (beagle, in vivo), the clearance is 2.36 mL/h/kg and the half-life is 36 days. Consider `O=C(CNC(=O)c1ccc(C2=NOC(c3cc(Cl)cc(C(F)(F)F)c3)(C(F)(F)F)C2)c2ccccc12)NCC(F)(F)F` (centres unmarked) [afoxolaner, reference compound], for which the half-life in data set [1] (setting [3]) is 15.5 days. For the same molecule, the clearance in data set [1] (setting [4]) was 4.96 mL/h/kg. On to `Cc1cc(C2=NOC(c3cc(C(F)(F)F)cc(Cl)c3F)(C(F)(F)F)C2)ccc1C(=O)N[C@@H]1CN(CC(F)(F)F)C1=O` (single isomer, unassigned) [Example 3.73, 4-[(5R or S)-5-[3-chloro-2-fluoro-5-(trifluoromethyl)phenyl]-5-(trifluoromethyl)-4H-isoxazol-3-yl]-2-methyl-N-[(3R)-2-oxo-1-(2,2,2-trifluoroethyl)azetidin-3-yl]benzamide], for which the LC50 in data set [2] is less than 1 µg/mL. On the same count and under the same terms, as for `CO[C@H]1C[C@@H](NC(=O)c2ccc(C3=NOC(c4cc(C(F)(F)F)cc(Cl)c4F)(C(F)(F)F)C3)cc2C)C1` (mixture of isomers) [Example 3.47, 4-[(5RS)-5-[3-chloro-2-fluoro-5-(trifluoromethyl)phenyl]-5-(trifluoromethyl)-4H-isoxazol-3-yl]-N-(cis-3-methoxycyclobutyl)-2-methyl-benzamide], the figure is less than 3 µg/mL. Regarding `Cc1cc(C2=NO[C@](c3cc(C(F)(F)F)cc(Cl)c3F)(C(F)(F)F)C2)ccc1C(=O)N[C@H]1C[C@H](C(F)(F)F)C1` (single isomer, unassigned) [Example 3.65, 2-methyl-4-[(5R or S)-5-[3-chloro-2-fluoro-5-(trifluoromethyl)phenyl]-5-(trifluoromethyl)-4H-isoxazol-3-yl]-N-[trans-3-(trifluoromethyl)cyclobutyl] benzamide], in data set [2], the LC50 is less than 1 µg/mL.

For `Cc1cc(C2=NOC(c3cc(C(F)(F)F)cc(Cl)c3F)(C(F)(F)F)C2)ccc1C(=O)N[C@H]1C[C@@H](S(C)(=O)=O)C1` (single isomer, unassigned) [Example 3.49, 4-[(5R or S)-5-[3-chloro-2-fluoro-5-(trifluoromethyl)phenyl]-5-(trifluoromethyl)-4H-isoxazol-3-yl]-2-methyl-N-((cis)3-methylsulfonylcyclobutyl) benzamide], the LC50 in data set [2] was less than 1 µg/mL. As to `Cc1cc(C2=NO[C@@](c3cc(Cl)c(Cl)c(Cl)c3)(C(F)(F)F)C2)sc1C(=O)NCC(=O)NCC(F)(F)F` [lotilaner, reference compound], the half-life in data set [1] (setting [3]) is 25 days. For the same molecule, in data set [1] (plasma, beagle dogs, single oral gavage (3 or 10 mg/kg) or intravenous dose (1 or 2 mg/kg), LC-MS/MS, read-out: Plasma clearance (converted)), the clearance is 7.5 mL/h/kg. Regarding `Cc1cc(C2=NOC(c3cc(C(F)(F)F)cc(Cl)c3F)(C(F)(F)F)C2)ccc1C(=O)Nc1cccc(C#N)c1` (single isomer, unassigned) [Example 3.81, N-(3-cyanophenyl)-2-methyl-4-[(5S or R)-5-[3-chloro-2-fluoro-5-(trifluoromethyl)phenyl]-5-(trifluoromethyl)-4H-isoxazol-3-yl]benzamide], the LC50 in data set [2] is less than 3 µg/mL. `Cc1cc(C2=NOC(c3cc(C(F)(F)F)cc(Cl)c3F)(C(F)(F)F)C2)ccc1C(=O)NCC(=O)NCC(F)(F)F` (centres unmarked) [3.1 or 3.2]: in data set [2], the LC50 is less than 1 µg/mL. In data set [1] (beagle, in vivo), this molecule showed a clearance of 2.55 mL/h/kg and a half-life of 50 days. On to `Cc1cc(C2=NOC(c3cc(C(F)(F)F)cc(Cl)c3F)(C(F)(F)F)C2)ccc1C(=O)NC1CN(S(=O)(=O)C(F)(F)F)C1` (single isomer, unassigned) [Example 3.61, 2-methyl-4-[(5R or S)-5-[3-chloro-2-fluoro-5-(trifluoromethyl)phenyl]-5-(trifluoromethyl)-4H-isoxazol-3-yl]-N-[1-(trifluoromethylsulfonyl)azetidin-3-yl]benzamide], for which the LC50 in data set [2] is less than 3 µg/mL. Consider `Cc1cc(C2=NOC(c3cc(C(F)(F)F)cc(Cl)c3F)(C(F)(F)F)C2)ccc1C(=O)NN1CCNC1=O` (racemic) [Example 3.25, 2-methyl-N-(2-oxoimidazolidin-1-yl)-4-[(5RS)-5-[3-chloro-2-fluoro-5-(trifluoromethyl)phenyl]-5-(trifluoromethyl)-4H-isoxazol-3-yl]benzamide], for which the LC50 in data set [2] was less than 3 µg/mL.

Regarding `Cc1cc(C2=NOC(c3cc(C(F)(F)F)cc(Cl)c3F)(C(F)(F)F)C2)ccc1C(=O)NC1CC2(COC2)C1` (single isomer, unassigned) [Example 3.62, 2-methyl-N-(2-oxaspiro[3.3]heptan-6-yl)-4-[(5R or S)-5-[3-chloro-2-fluoro-5-(trifluoromethyl)phenyl]-5-(trifluoromethyl)-4H-isoxazol-3-yl]benzamide], the LC50 in data set [2] was less than 1 µg/mL.

One may read the half-life as the time needed for the level to fall by half in the phase considered.
